One test relates to Italian ryegrass. Nature of the test: Test Example 4: herbicidal effect by soil treatment (Table 19, symbol K). Type of test: in vivo, Italian ryegrass (Lolium multiflorum). The conditions noted are these: amount of applied herbicide 320 g/ha. The method, boiled down: (§1)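 Emulsion of test compound, water-diluted to predetermined amount, sprayed on soil after sowing (seed depth ~1.5 cm, sterilized diluvial soil). Greenhouse, 25–30° C. Effect graded at three weeks post-spray.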

For test [1], the system named is wild oat. In words: Test Example 4: herbicidal effect by soil treatment (Table 19, symbol I). The class given is in vivo, wild oat (Avena fatua). The conditions noted are these: amount of applied herbicide 320 g/ha. The method, boiled down: as §1
The subject of test [2] is redroot pigweed. Nature of the test: Test Example 5: herbicidal effect by foliage application, plastic box (Table 20, symbol N). The class given is in vivo, redroot pigweed (Amaranthus retroflexus). The conditions noted are these: foliage application, 320 g/ha, three weeks after application. The procedure, abridged: (§2)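 Post-emergence foliar test in sterilized diluvial soil. Compound applied as water-diluted emulsion at a predetermined rate to 14-day-old plants; evaluation at three weeks.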

In test [3] the test system is wild oat. In words: Test Example 5: herbicidal effect by foliage application, plastic box (Table 20, symbol I). Type of test: in vivo, wild oat (Avena fatua). The conditions noted are these: foliage application, 320 g/ha, three weeks after application. The procedure, abridged: as §2
Test [4] deals with barnyard grass. Nature of the test: Test Example 5: herbicidal effect by foliage application, plastic box (Table 20, symbol H). Particulars: foliage application, 320 g/ha, three weeks after application. The class given is in vivo, barnyard grass (Echinochloa crus-galli). The procedure, abridged:
as §2

Test [5] relates to false cleavers. Nature of the test: Test Example 5: herbicidal effect by foliage application, plastic box (Table 20, symbol Q). The class given is in vivo, false cleavers (Galium spurium). The conditions noted are these: foliage application, 320 g/ha, three weeks after application. The method, boiled down: as §2
A further test concerns southern crabgrass. Nature of the test: Test Example 4: herbicidal effect by soil treatment (Table 19, symbol F). Type of test: in vivo, southern crabgrass (Digitaria ciliaris). Particulars: amount of applied herbicide 320 g/ha. The procedure, abridged: as §1
For another test, the system named is green foxtail. Nature of the test: Test Example 5: herbicidal effect by foliage application, plastic box (Table 20, symbol G). The conditions noted are these: foliage application, 320 g/ha, three weeks after application. The class given is in vivo, green foxtail (Setaria viridis). The method, boiled down:
as §2

For a further test, the system named is chickweed. In words: Test Example 5: herbicidal effect by foliage application, plastic box (Table 20, symbol P). Type of test: in vivo, common chickweed (Stellaria media). Particulars: foliage application, 320 g/ha, three weeks after application. The procedure, abridged: as §2
The test system of test [6] is false cleavers. In words: Test Example 4: herbicidal effect by soil treatment (Table 19, symbol Q). The class given is in vivo, false cleavers (Galium spurium). Particulars: amount of applied herbicide 320 g/ha. The method, boiled down:
as §1

Test [7] deals with barnyard grass. Nature of the test: Test Example 4: herbicidal effect by soil treatment (Table 19, symbol H). The class given is in vivo, barnyard grass (Echinochloa crus-galli). Particulars: amount of applied herbicide 320 g/ha. The method, boiled down: as §1
The subject of test [8] is redroot pigweed. Nature of the test: Test Example 4: herbicidal effect by soil treatment (Table 19, symbol N). The class given is in vivo, redroot pigweed (Amaranthus retroflexus). Particulars: amount of applied herbicide 320 g/ha. The method, boiled down:
as §1

The test system of a further test is oval-leafed pondweed. In words: Test Example 2: herbicidal activity, application during weed generation under submerged conditions (Table 17, symbol C). The class given is in vivo, oval-leafed pondweed (Monochoria vaginalis). Particulars: AAH 320 g/ha; application during weed generation, submerged conditions. The method, boiled down:
(§3)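 Herbicide emulsion, diluted with water to the chosen amount, is applied onto 4 cm floodwater over alluvial soil where the weeds were co-sown and raised at 25–30° C. Application timing: 1–2 leaves. Assessment: three weeks afterwards.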

The subject of test [9] is blackgrass. Nature of the test: Test Example 5: herbicidal effect by foliage application, plastic box (Table 20, symbol J). The class given is in vivo, blackgrass (Alopecurus myosuroides). The conditions noted are these: foliage application, 320 g/ha, three weeks after application. The procedure, abridged:
as §2

The subject of test [10] is blackgrass. Nature of the test: Test Example 4: herbicidal effect by soil treatment (Table 19, symbol J). Particulars: amount of applied herbicide 320 g/ha. Type of test: in vivo, blackgrass (Alopecurus myosuroides). The procedure, abridged:
as §1

Test [11] relates to Japanese bulrush. In words: Test Example 2: herbicidal activity, application during weed generation under submerged conditions (Table 17, symbol B). Type of test: in vivo, Japanese bulrush (Schoenoplectus juncoides). Particulars: AAH 320 g/ha; application during weed generation, submerged conditions. The method, boiled down: as §3
A further test concerns late watergrass. Nature of the test: Test Example 1: herbicidal activity, application before weed generation under submerged conditions (Table 16, symbol A). The class given is in vivo, late watergrass (Echinochloa oryzicola). The conditions noted are these: amount of applied herbicide 320 g/ha. The method, boiled down:
(§4)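 Alluvial soil was flooded to 4 cm depth, weed seeds were sown mixed and 2.5-leaf rice seedlings were transplanted. On sowing day, the compound's emulsion, diluted in water to a set dose, was applied to the water surface. Plants grew at 25–30 °C and were scored 0–5 after three weeks.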

Test [12] concerns Japanese bulrush. In words: Test Example 1: herbicidal activity, application before weed generation under submerged conditions (Table 16, symbol B). Type of test: in vivo, Japanese bulrush (Schoenoplectus juncoides). The conditions noted are these: amount of applied herbicide 320 g/ha. The procedure, abridged:
as §4

In the case of `CCOc1ccc(-c2sc3cc(OC)ccc3c2-c2c(O)c(C)nn(C)c2=O)cc1` [3-072], the “K: Italian ryegrass, herbicidal effect grade” value (shortened to “K: Italian ryegrass”) in the test on Italian ryegrass was 0 (Herbicidal rate of 5% or less (almost no effect)). Further, the “I: wild oat, herbicidal effect grade” value with wild oat [1] and with wild oat [3] was 0 (Herbicidal rate of 5% or less (almost no effect)) each time. Besides, the “N: redroot pigweed, herbicidal effect grade” value (“N: redroot pigweed” for short) is 5 (Herbicidal rate of 90% or more (almost completely withered)) in the test with redroot pigweed [2]; 2 (Herbicidal rate of 20% or more and less than 40%) in the test on redroot pigweed [8]. Also, the “H: barnyard grass, herbicidal effect grade” value (shortened to “H: barnyard grass”) with barnyard grass [4] is 3 (Herbicidal rate of 40% or more and less than 70%); in the test with barnyard grass [7] it was 0 (Herbicidal rate of 5% or less (almost no effect)). The “Q: false cleavers, herbicidal effect grade” value (shortened to “Q: false cleavers”) in the test on false cleavers [5] was 5 (Herbicidal rate of 90% or more (almost completely withered)); in the test with false cleavers [6] it was 1 (Herbicidal rate of 5% or more and less than 20%). Further, the “F: southern crabgrass, herbicidal effect grade” value (shortened to “F: southern crabgrass”) with southern crabgrass is given as 0 (Herbicidal rate of 5% or less (almost no effect)). Further, in the test on green foxtail, the “G: green foxtail, herbicidal effect grade” value (shortened to “G: green foxtail”) was 3 (Herbicidal rate of 40% or more and less than 70%). The “P: chickweed, herbicidal effect grade” value with chickweed is 5 (Herbicidal rate of 90% or more (almost completely withered)). Besides, the “herbicidal effect rating, C: oval-leafed pondweed” value (from here on “herbicidal effect rating, C”) in the test on oval-leafed pondweed was 3 (Herbicidal rate of 40% or more and less than 70%). The “J: blackgrass, herbicidal effect grade” value in the test with blackgrass [9] and with blackgrass [10] was 0 (Herbicidal rate of 5% or less (almost no effect)) throughout. The “herbicidal effect rating, B: Japanese bulrush” value (“herbicidal effect rating, B” for short) with Japanese bulrush [11] was 2 (Herbicidal rate of 20% or more and less than 40%). Moreover, the “Herbicidal effect, A: late watergrass” value in the test on late watergrass was 1 (Herbicidal rate of 5% or more and less than 20%). Also, in the test on Japanese bulrush [12], the “Herbicidal effect, B: Japanese bulrush” value was 5 (Herbicidal rate of 90% or more (almost completely withered)).

For the molecule `COc1ccc2c(-c3c(O)c(C)nn(C)c3=O)c(-c3ccc(F)cc3OC)sc2c1` [3-076], the “K: Italian ryegrass” value in the test on Italian ryegrass was 4 (Herbicidal rate of 70% or more and less than 90%). Moreover, the “I: wild oat, herbicidal effect grade” value was 3 (Herbicidal rate of 40% or more and less than 70%) in the test on wild oat [1]; 4 (Herbicidal rate of 70% or more and less than 90%) in the test on wild oat [3]. Further, the “N: redroot pigweed” value with redroot pigweed [2] and in the test with redroot pigweed [8] was 5 (Herbicidal rate of 90% or more (almost completely withered)) throughout. For the same molecule, the “H: barnyard grass” value in the test on barnyard grass [4] is 3 (Herbicidal rate of 40% or more and less than 70%); with barnyard grass [7], 3 (Herbicidal rate of 40% or more and less than 70%). In addition, the “Q: false cleavers” value in the test on false cleavers [5] was 4 (Herbicidal rate of 70% or more and less than 90%); with false cleavers [6], 4 (Herbicidal rate of 70% or more and less than 90%). Further, the “F: southern crabgrass” value in the test on southern crabgrass is reported as 0 (Herbicidal rate of 5% or less (almost no effect)). Moreover, the “G: green foxtail” value in the test on green foxtail is 5 (Herbicidal rate of 90% or more (almost completely withered)). In the test with chickweed, the “P: chickweed, herbicidal effect grade” value was 5 (Herbicidal rate of 90% or more (almost completely withered)). Further, in the test with oval-leafed pondweed, the “herbicidal effect rating, C” value is 4 (Herbicidal rate of 70% or more and less than 90%). In addition, the “J: blackgrass, herbicidal effect grade” value in the test on blackgrass [9] was 4 (Herbicidal rate of 70% or more and less than 90%); with blackgrass [10], 5 (Herbicidal rate of 90% or more (almost completely withered)). In addition, the “herbicidal effect rating, B” value in the test on Japanese bulrush [11] was 4 (Herbicidal rate of 70% or more and less than 90%). For the same molecule, the “Herbicidal effect, A: late watergrass” value in the test with late watergrass is 4 (Herbicidal rate of 70% or more and less than 90%). For the same molecule, the “Herbicidal effect, B: Japanese bulrush” value in the test with Japanese bulrush [12] was 5 (Herbicidal rate of 90% or more (almost completely withered)).

With `CCCC(=O)Oc1c(C)nn(C)c(=O)c1-c1c(-c2ccc(F)cc2OC)sc2cc(OC)ccc12` [3-077], the “K: Italian ryegrass” value in the test on Italian ryegrass was 3 (Herbicidal rate of 40% or more and less than 70%). The “I: wild oat, herbicidal effect grade” value is 2 (Herbicidal rate of 20% or more and less than 40%) in the test with wild oat [1]; 4 (Herbicidal rate of 70% or more and less than 90%) with wild oat [3]. Moreover, the “N: redroot pigweed” value with redroot pigweed [2] was 3 (Herbicidal rate of 40% or more and less than 70%); in the test with redroot pigweed [8], 5 (Herbicidal rate of 90% or more (almost completely withered)). Further, the “H: barnyard grass” value in the test with barnyard grass [4] was 0 (Herbicidal rate of 5% or less (almost no effect)); with barnyard grass [7], 3 (Herbicidal rate of 40% or more and less than 70%). The “Q: false cleavers” value with false cleavers [5] is 3 (Herbicidal rate of 40% or more and less than 70%); with false cleavers [6], 2 (Herbicidal rate of 20% or more and less than 40%). Also, in the test with southern crabgrass, the “F: southern crabgrass” value is recorded as 0 (Herbicidal rate of 5% or less (almost no effect)). Moreover, in the test on green foxtail, the “G: green foxtail” value is listed as 5 (Herbicidal rate of 90% or more (almost completely withered)). Also, the “P: chickweed, herbicidal effect grade” value with chickweed was 5 (Herbicidal rate of 90% or more (almost completely withered)). The “herbicidal effect rating, C” value with oval-leafed pondweed was 4 (Herbicidal rate of 70% or more and less than 90%). The “J: blackgrass, herbicidal effect grade” value in the test with blackgrass [9] is 4 (Herbicidal rate of 70% or more and less than 90%); in the test on blackgrass [10], 3 (Herbicidal rate of 40% or more and less than 70%). In the test with Japanese bulrush [11], the “herbicidal effect rating, B” value was 4 (Herbicidal rate of 70% or more and less than 90%). For the same molecule, the “Herbicidal effect, A: late watergrass” value in the test on late watergrass is listed as 5 (Herbicidal rate of 90% or more (almost completely withered)). Also, the “Herbicidal effect, B: Japanese bulrush” value in the test on Japanese bulrush [12] was 5 (Herbicidal rate of 90% or more (almost completely withered)).

`CCOc1ccccc1-c1sc2cc(OC)ccc2c1-c1c(O)c(C)nn(CC)c1=O` [3-085]: in the test on Italian ryegrass, the “K: Italian ryegrass” value is recorded as 0 (Herbicidal rate of 5% or less (almost no effect)). For the same molecule, the “I: wild oat, herbicidal effect grade” value is 0 (Herbicidal rate of 5% or less (almost no effect)) in the test on wild oat [1]; 4 (Herbicidal rate of 70% or more and less than 90%) with wild oat [3]. For the same molecule, the “N: redroot pigweed” value with redroot pigweed [2] was 5 (Herbicidal rate of 90% or more (almost completely withered)); in the test with redroot pigweed [8], 3 (Herbicidal rate of 40% or more and less than 70%). The “H: barnyard grass” value in the test on barnyard grass [4] is 4 (Herbicidal rate of 70% or more and less than 90%); in the test with barnyard grass [7], 3 (Herbicidal rate of 40% or more and less than 70%). Further, the “Q: false cleavers” value in the test with false cleavers [5] was 4 (Herbicidal rate of 70% or more and less than 90%); in the test with false cleavers [6], 0 (Herbicidal rate of 5% or less (almost no effect)). Further, the “F: southern crabgrass” value in the test on southern crabgrass is 4 (Herbicidal rate of 70% or more and less than 90%). Also, the “G: green foxtail” value in the test on green foxtail is 4 (Herbicidal rate of 70% or more and less than 90%). For the same molecule, the “P: chickweed, herbicidal effect grade” value in the test on chickweed was 5 (Herbicidal rate of 90% or more (almost completely withered)). In addition, the “herbicidal effect rating, C” value with oval-leafed pondweed is 3 (Herbicidal rate of 40% or more and less than 70%). Moreover, the “J: blackgrass, herbicidal effect grade” value in the test with blackgrass [9] is 4 (Herbicidal rate of 70% or more and less than 90%); in the test with blackgrass [10], 1 (Herbicidal rate of 5% or more and less than 20%). The “herbicidal effect rating, B” value with Japanese bulrush [11] was 3 (Herbicidal rate of 40% or more and less than 70%). Besides, the “Herbicidal effect, A: late watergrass” value with late watergrass was 5 (Herbicidal rate of 90% or more (almost completely withered)). Further, the “Herbicidal effect, B: Japanese bulrush” value in the test with Japanese bulrush [12] is reported as 5 (Herbicidal rate of 90% or more (almost completely withered)).
